Data reported in patent US3989835A, “Method of using 6-substituted amino phenyl-2,3,5,6-tetra-hydro[2,1-b]thiazoles for controlling gastrointestinal nematodes” (American Cyanamid Company, priority 1974, dated 1976).
Several values for one entry are separate records, joined by “and”; a condition that tells them apart may be missing. Equal values may be shown once. Where a name gives a salt, the structure may show the parent alone. Read-outs that look alike come from different tables or passages of the source.

Tests used:
[1] = system: Nematospiroides dubius; assay: Anthelmintic efficacy against N. dubius in mice, single oral dose; assay type: in vivo, Nematospiroides dubius (in albino female mice); details: for inhibition in vivo at 5 mg/kg: single oral dose 5.0 mg./Kg.; for inhibition in vivo at 10 mg/kg: single oral dose 10 mg./Kg.; for inhibition in vivo at 20 mg/kg: single oral dose 20 mg./Kg.
[2] = in vivo; details: dog
Procedure: (§1) Dogs infected with mature adult whipworms Trichuris vulpis were treated with various single or double doses of unsubstituted or substituted tetramisole analogs by the oral or subcutaneous route (Table XI hereinafter). Whipworms passed in the feces were collected for several days, and the whipworms still present determined at necropsy. Percent efficacy was determined in these "critical" tests. […] Trichuris is a type of nematode refactory to treatment with most prior anthelmintics at well tolerated doses. Taxonomically allied nematodes, e.g., Trichinella and Capillaria are also refractory to most anthelmintics.

[3] = system: Trichuris vulpis; assay: Oral or subcutaneous activity vs. mature Trichuris vulpis in dogs (critical test); assay type: in vivo
Procedure: as §1

[4] = system: helminths; assay: Activity against helminths (general statement); details: in vivo
[5] = in vivo; details: for Approx. LD50 /ED50: chemotherapeutic index, mouse oral, N. dubius; for LD50: mouse, in vivo, po; for Dead/Total: mice
Source text: Data on the acute oral toxicity to mice of various single oral doses of the above compounds and several analogs were obtained by conventional procedures, (Table IX hereinafter).

[6] = system: helminths; details: prior art compounds; cited from earlier work
[7] = system: whipworms; details: prior art compounds, especially in dogs; cited from earlier work
[8] = Heligmosomoides polygyrus, po, mouse oral, Table IX, read-out: Approx. ED50 vs. N. dubius
[9] = oral 5 Mg./Kg., based on total worms in all dogs
[10] = Approx. LD50, mouse oral, Table IX
[11] = LD50, mice, adjusted to molar equivalents of tetramisole free base
[12] = Heligmosomoides polygyrus, po, as Base, single oral dose, mice, > indicates inactive at dose shown, read-out: Approx. ED50
[13] = Heligmosomoides polygyrus, po, single oral dose 1.25 mg./Kg., molar-adjusted, read-out: Percent Nematospiroides Activity
[14] = Heligmosomoides polygyrus, po, single oral dose 2.0 mg./Kg., molar-adjusted, read-out: Percent Nematospiroides Activity
[15] = Heligmosomoides polygyrus, po, single oral dose 4.0 mg./Kg., molar-adjusted, read-out: Percent Nematospiroides Activity
[16] = Heligmosomoides polygyrus, po, molar-adjusted, read-out: Percent Nematospiroides Activity
[17] = single oral dose 10 mg./kg., N. dubius, mice

SMILES	ED50 [1, 8] [mg/kg]	MTD ([2]; po) [mg/kg]	MTD ([2]; sc) [mg/kg]	% Efficacy SC ([3]; SC 2.5 Mg./Kg.) [%]	% Efficacy Orally ([3]; oral 1.25 Mg./Kg.) [%]	% Efficacy Orally ([3]; oral 2.5 Mg./Kg.) [%]	% Efficacy Orally [3, 9] [%]	Approx. LD50 /ED50 ([5]; Table IX)	LD50 [5, 10] [mg/kg]	LD50 [5, 11] [mg/kg]	Dead/Total ([5]; single oral dose 4-5 Mg./Kg.)	Dead/Total ([5]; single oral dose 10 Mg./Kg.)	Dead/Total ([5]; single oral dose 20 Mg./Kg.)	ED50 [1, 12] [mg/kg]	inhibition in vivo at 2 mg/kg [1, 14] [%]	inhibition in vivo at 4 mg/kg [1, 15] [%]	inhibition in vivo at 5 mg/kg [1, 16] [%]	inhibition in vivo at 10 mg/kg [1, 16] [%]	% Efficacy SC ([3]; SC 5 Mg./Kg.) [%]	Dead/Total ([5]; single oral dose 40 Mg./Kg.)	other results
Nc1cccc(C2CN3CCSC3=N2)c1 (stereo not drawn) [m-NH2 l, l-6-(m-Aminophenyl)-2,3,5,6-tetrahydroimidazo[2,1-b]thiazoleDihydrochloride]	0.75	10	4	100	94	100	100	20	15	~15	0/12	2/10	4/5	–	–	–	–	–	–	–	Percent Nematospiroides Activity ([1]; single oral dose 1.25 mg./Kg., molar-adjusted): 59%; Percent Nematospiroides Activity ([1]; single oral dose 2.0 mg./Kg., molar-adjusted): 88%; Percent Nematospiroides Activity ([1]; single oral dose 4.0 mg./Kg., molar-adjusted): 98%; % Efficacy SC ([3]; SC 1.25 Mg./Kg.): 72%; activity relative to the dl compound [4]: almost twice as active as the dl compound; Dead/Total ([5]; single oral dose 15 Mg./Kg.): 3/9
Cl.Cl.Nc1cccc(C2CN3CCSC3=N2)c1 (racemic) [dl-m-aminotetramisole, 6-(m-Aminophenyl)-2,3,5,6-tetrahydroimidazo[2,1-b]thiazole Dihydrochloride]	1	7.5	5	92	–	99	98	15	15	~20	0/8	2/29	10/12	1	92	100	100	100	100	4/4	ED50 ([1]; Heligmosomoides polygyrus, po, read-out: ED50 (approximate dose which removes 50% of the worms), N. dubius in mice, single oral dose): ~1 mg/kg; inhibition in vivo at 1.25 mg/kg [1, 13]: 57%; superiority over tetramisole at dose required to attain 85 - 88% efficacy ([1]; N. dubius in mice): approximately eightfold superiority; activity in words ([1]; N. dubius in mice, oral): unusually high activity; activity relative to tetramisole ([1]; from ED50s against N. dubius in mice): approximately nine times as active as tetramisole; activity in words ([1]; single dose oral ED50 against N. dubius in mice): unexpected high activity; Average % Efficacy ([1]; single oral dose 0.5 mg./kg.): 5%; % Efficacy per Group ([1]; single oral dose 0.5 mg./kg., Dihydrochloride): 2% and 6% and 8%; Average % Efficacy ([1]; single oral dose 1.00 mg./kg.): 50%; Average % Efficacy ([1]; single oral dose 1.25 mg./kg.): 81%; % Efficacy per Group ([1]; single oral dose 1.25 mg./kg., Dihydrochloride): 80% and 82%; Average % Efficacy ([1]; single oral dose 2.0 mg./kg.): 85%; % Efficacy per Group ([1]; single oral dose 2.0 mg./kg., Dihydrochloride): 77% and 78% and 82% and 83% and 88% and 92% and 98%; % Efficacy per Group ([1]; single oral dose 4 mg./kg.): 100%; Average % Efficacy ([1]; single oral dose 4 mg./kg.): 100%; % Efficacy per Group ([1]; single oral dose 5 mg./kg.): 100%; Average % Efficacy ([1]; single oral dose 5 mg./kg.): 100%; % Efficacy per Group [1, 17]: 100%; Average % Efficacy [1, 17]: 100%; Dead/Total ([5]; single oral dose 15 Mg./Kg.): 7/14
O=CNc1cccc(C2CN3CCSC3=N2)c1 (racemic) [m-NH--HCO dl, 3'-(2,3,5,6-Tetrahydroimidazo[2,1-b-]thiazol-6-yl)-formanilide]	3	7.5	> 5	–	21	83	100	10	30	~30	0/8	0/4	1/10	3	–	79	–	97	–	12/13	–
CNc1cccc(C2CN3CCSC3=N2)c1.Cl.Cl (stereo not drawn) [m-NH--CH3 dl, 2,3,5,6-Tetrahydro-6-(m-methylaminophenyl)imidazo[2,1-b]thiazole Dihydrochloride]	7	> 10	30	29	–	–	100	14	100	–	–	–	0/4	7	28	–	–	66	94	–	inhibition in vivo at 20 mg/kg [1, 16]: 100%; inhibition in vivo at 30 mg/kg ([1]; Heligmosomoides polygyrus, po, single oral dose 30 mg./Kg., molar-adjusted, read-out: Percent Nematospiroides Activity): 100%; Dead/Total ([5]; single oral dose 50 Mg./Kg.): 0/4; Dead/Total ([5]; single oral dose 100 Mg./Kg.): 2/5
c1ccc(C2CN3CCSC3=N2)cc1 (stereo not drawn) [l H, l-6-phenyl-2,3,5,6,-tetrahydroimidazo[2,1-b]thiazole, reference compound]	–	–	–	–	–	–	–	–	–	–	–	–	–	–	–	–	–	–	8	–	activity against helminths in words [6]: highly effective against most helminths; activity against whipworms in words [7]: not sufficiently active against whipworms, especially in dogs; % Efficacy SC ([3]; SC 10 Mg./Kg.): 50%; % Efficacy SC ([3]; SC 15 Mg./Kg.): 43%; % Efficacy SC ([3]; SC 20 Mg./Kg.): 100%
O=CNc1cccc(C2CN3CCSC3=N2)c1 (stereo not drawn) [HNCHO l-]	–	2.5	–	–	46	100	–	–	–	~30	–	–	–	–	72	–	95	100	–	–	inhibition in vivo at 1.25 mg/kg [1, 13]: 61%
c1ccc(C2CN3CCSC3=N2)cc1 (racemic) [dl-tetramisole, dl-6-phenyl-2,3,5,6-tetrahydroimidazo[2,1-b]thiazole, reference compound]	–	–	–	–	–	–	–	–	–	–	–	–	–	–	–	–	–	–	–	–	activity against helminths in words [6]: highly effective against most helminths; ED50 ([1]; Heligmosomoides polygyrus, read-out: ED50 (approximate dose which removes 50% of the worms), N. dubius in mice, single oral dose): ~9 mg/kg; ED50 ([1]; Heligmosomoides polygyrus, as Base, single oral dose, mice, > indicates inactive at dose shown, read-out: Approx. ED50): 9 mg/kg; ED50 ([1]; Heligmosomoides polygyrus, mouse oral, Table IX, read-out: Approx. ED50 vs. N. dubius): 9 mg/kg; Average % Efficacy ([1]; single oral dose 6 mg./kg.): 7%; % Efficacy per Group ([1]; single oral dose 8 mg./kg.): 28% and 33% and 39%; Average % Efficacy ([1]; single oral dose 8 mg./kg.): 33%; Average % Efficacy [1, 17]: 70%; % Efficacy per Group ([1]; single oral dose 12 mg./kg.): 60% and 62% and 68% and 73%; Average % Efficacy ([1]; single oral dose 12 mg./kg.): 66%; % Efficacy per Group ([1]; single oral dose 16 mg./kg.): 74% and 91% and 92% and 94%; Average % Efficacy ([1]; single oral dose 16 mg./kg.): 88%; % Efficacy per Group ([1]; single oral dose 20 mg./kg.): 96% and 98% and 99% and 100%; Average % Efficacy ([1]; single oral dose 20 mg./kg.): 98%; activity against whipworms in words [7]: not sufficiently active against whipworms, especially in dogs; oral dose at which inactive (% Efficacy Orally column) ([3]; > means inactive at dose shown, oral): > 10 mg/kg; % Efficacy SC ([3]; SC 10 Mg./Kg., listed as dl H): 2%
CC(C)Nc1cccc(C2CN3CCSC3=N2)c1 (stereo not drawn) [m-NH-CH(CH3)2 dl, 6-(m-isopropylaminophenyl)-2,3,5,6-tetrahydroimidazo[2,1-b]thiazole]	5	–	–	–	–	–	–	8	~40	~50	–	–	–	5	–	–	55	100	–	2/6	inhibition in vivo at 7.5 mg/kg ([1]; Heligmosomoides polygyrus, po, single oral dose 7.5 mg./Kg., molar-adjusted, read-out: Percent Nematospiroides Activity): 89%; inhibition in vivo at 20 mg/kg [1, 16]: 100%; inhibition in vivo at 40 mg/kg ([1]; Heligmosomoides polygyrus, po, single oral dose 40 mg./Kg., molar-adjusted, read-out: Percent Nematospiroides Activity): 100%; Dead/Total ([5]; single oral dose 60 Mg./Kg.): 3/6; Dead/Total ([5]; single oral dose 80 Mg./Kg.): 4/6; Dead/Total ([5]; single oral dose 100 Mg./Kg.): 5/6
O=CNc1cccc(C2CN3C=CSC3=N2)c1 (stereo not drawn) [5,6-dihydro HNCHO]	–	–	–	–	–	–	–	–	–	~150	–	–	–	–	–	64	–	100	–	–	–
CC(=O)Nc1ccc(Br)c(C2CN3CCSC3=N2)c1 (racemic) [R1 =COCH3 R4 =Br]	30	–	–	–	–	–	–	–	> 100	–	–	–	–	–	–	–	–	–	–	–	ED50 ([1]; Heligmosomoides polygyrus, po, continuation of Table X (R1/R4 disubstituted), read-out: ED50): 30 mg/kg
